Reference: article PMC11219860, “A chemogenetic approach for dopamine imaging with tunable sensitivity” (Nature Communications, 2024)

How the values were obtained:
dLight1.3bL143I = dLight1.3bL143I (Homo sapiens, UniProt P21728, L143I); assay: cell-based; type: cell-based
Procedure: (§1) Cells were transfected at 50–60% confluency in glass-bottomed dishes (either individually or in 24-well plates) using the Effectene transfection kit (Qiagen) according to manufacturer instructions, and imaged 24–48 h after transfection. The Flp-In™ T-REx™ 293 cells (Thermo Fisher) with a stably integrated dLight1.3b cassette[48] were cultured as follows: the cells were cultured using HEK293T cell medium with the addition of Blasticidin (15 µg/ml) and Hygromycin B (200 µg/ml). To induce the expression of dLight1.3b, doxycycline (500 ng/ml) was added to the culture medium for 24–48 hours. Before imaging, cells were rinsed with 1 mL of Hank’s Balanced Salt Solution (HBSS, Life Technologies) supplemented with Ca^2+ (2 mM) and Mg^2+ (1 mM), and imaged at room temperature with a final HBSS volume of either 100 µL for each individual 1.5 cm glass bottom dish, or 500 µL for 24-well plates. Time-lapse imaging was performed on an inverted Zeiss LSM 800 confocal microscope using a 488 nm laser and a 40X oil-based objective. During imaging, ligands were added in bolus on the cells using a micropipette to reach the final specified concentrations of ligand over the cells. For quantification, except otherwise noted, regions of interest (ROI) were selected manually using the threshold function of Fiji to isolate the cell membrane. Sensor response (∆F/F) was calculated as the following: (F(t)-F_base)/F_base with F(t) being the ROI fluorescence value at each time point (t), and F_base being the mean fluorescence of the 10-time points immediately prior to ligand addition.

dLight1.3b [1] = biological target: dLight1.3b (Homo sapiens, UniProt P21728); assay: DA titrations on dLight1.3b-expressing HEK293 cells (confocal fluorescence imaging); type: cell-based
Procedure: as §1

dLight1.3b [2] = assay: Multi-fiber photometry of dLight1.3b across brain regions; type: in vivo, mouse; conditions: mean ± SEM
Text: We used a light emitting diode (LED, M470L5 Thorlabs) at the 470-nm central wavelength for excitation of dLight1.3b. To achieve stable continuous operation, LEDs were run at 80% of maximal output power corresponding to an excitation power of ~1 mW/mm^2 per fiber channel. LED light was collimated with the 16 mm condenser lens (ACL25416U-A, Thorlabs). A microscope objective (TL4x-SAP; Thorlabs) coupled excitation light into the respective array of 12-fibers (Sylex). A dichroic beamsplitter (F58-486 dual line, AHF) coupled the excitation light into the objective (TL4x-SAP, Thorlabs) and transmitted the fluorescence in the dLight1.3b emission spectral window. To separate fluorescence signals from residuals of the excitation light and to minimize auto-fluorescence generated in a broader spectral range we used an emission filter (525/50 nm, F37-516, AHF, for dLight1.3b). To image the end face of the fiber array onto the camera we used a 100-mm focal tube lens (TTL100-A, Thorlabs). […]
Fluorescence signals were expressed as percentage ΔF/F0 relative to the fluorescence baseline. The fluorescence baseline was defined as the minimal level of the signal after subtracting the auto-fluorescence baseline, that is the level of fluorescence estimated prior to the mouse connection. Because in our experiment we wanted to estimate the slow DETQ decay times, we fitted the second-order polynomial trend to the recorded fluorescence signals. […] In all measured traces we visually verified the quality of fit. […] To analyse the ΔF/F0 temporal dynamics at multiple temporal scales separately, we decomposed the fluorescence traces with the wavelet transform (cwt function, MATLAB). We separately analysed measurement traces (30 min before and 30 min after the injection). […] After we compared across independent channels and mice contribution of various temporal scales (in the range of 1−30 seconds) to the recorded ΔF/F0. […] To compare the temporal scales recorded before and after the DETQ injection, during the same session, we used a non-parametric Wilcoxon signed-rank test.

[3] = DA 100 µM, wide range of DETQ concentrations

dLight1.3bL143I, sequence (P21728 whole entry L143I, looked up): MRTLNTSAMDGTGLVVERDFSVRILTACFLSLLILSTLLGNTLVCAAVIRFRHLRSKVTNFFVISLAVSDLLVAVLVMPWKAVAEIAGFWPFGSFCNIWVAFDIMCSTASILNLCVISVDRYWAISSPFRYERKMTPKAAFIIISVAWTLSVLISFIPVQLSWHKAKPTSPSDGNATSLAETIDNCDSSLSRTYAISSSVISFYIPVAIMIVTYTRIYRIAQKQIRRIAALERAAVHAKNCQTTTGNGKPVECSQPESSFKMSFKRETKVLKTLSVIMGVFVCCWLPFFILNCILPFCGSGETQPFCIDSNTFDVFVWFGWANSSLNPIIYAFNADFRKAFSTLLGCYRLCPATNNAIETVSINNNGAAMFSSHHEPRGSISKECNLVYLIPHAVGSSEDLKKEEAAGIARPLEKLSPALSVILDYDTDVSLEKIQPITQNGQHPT

C[C@H]1c2cccc(C(C)(C)O)c2C[C@H](CO)N1C(=O)Cc1c(Cl)cccc1Cl [DETQ, 2-(2,6-dichlorophenyl)-1-((1S,3R)-3-(hydroxymethyl)-5-(2-hydroxypropan-2-yl)-1-methyl-3,4-dihydroisoquinolin-2(1H)-yl)ethan-1-one]
Kb (dLight1.3bL143I): 0.0177 µM | sensor response to DETQ in the absence of DA (dLight1.3bL143I): could not trigger a response | α factor (dLight1.3bL143I): 10.8 | maximal fluorescent response to a saturating concentration of DA (dLight1.3bL143I; [3]): not affected | increase in DETQ potency versus dLight1.3b (dLight1.3bL143I; human, hek293 cells): 3 fold | maximal leftward shift in the EC50 of DA (dLight1.3b [1]): ~ 8 fold | sensor response to DETQ in the absence of DA (dLight1.3b [1]): could not trigger a response | effect on the DA sensitivity of dLight1.3b (dLight1.3b [1]; D1-PAM 5 μM): strong positive allosteric effect | sensor fluorescence in the presence of sub-maximal DA (dLight1.3b [1]; DA 100 nM, DETQ 100 nM): strong and significant increase | maximal fluorescent response to a saturating concentration of DA (dLight1.3b [1]; [3]): not affected | Kb (dLight1.3b [1]; DA titrations with 1 nM to 450 nM DETQ, allosteric EC50 shift, read-out: allosteric affinity constant (Kb)): 0.054 µM | effect on sensor responses to noradrenaline (NE) (dLight1.3b [1]; DETQ 50 nM): potentiation | α factor (dLight1.3b [1]; allosteric EC50 shift fit): 8.6 | peak ΔF/F0 fluorescence (dLight1.3b [2]; CPu): 28.3 ± 6.27% | peak ΔF/F0 fluorescence (dLight1.3b [2]; NAc): 22.3 ± 6.11% | peak ΔF/F0 fluorescence (dLight1.3b [2]; PFC): 6.8 ± 2.39%
